Legend:
[1] = system: PBMCs from T1D patients (CD25+ CD71+ CTVmid CD4+ T-cells); assay: FAIM assay with PBMCs from T1D patients; assay type: cell-based, human; conditions: 34/38 T1D patients
Source text: FIG. 7. GAD65 P10Sol response rate in T1D patients. (A) T1D PBMCs were screened using the FAIM assay for responsiveness to GAD65 P10 30-mer and GAD65 P10Sol with paired ^3H-thymidine samples were acquired for each condition. A positive response for FAIM assay required a proliferating CD25^+ CD71^+ CD4 T-cell count >25 and the population SI to be ≥2× the negative control. A positive response for the ^3H-thymidine assay required raw counts >1000 and a SI of ≥3× the negative control. […] The scale for both heat maps is Log 2 (stimulation index (SI)). […] (B) Agreement analysis for the outcomes of the flow cytometric and ^3H-thymidine proliferation readouts of the FAIM assay. (C) Paired analysis of stimulation indexes from FAIM^+ and ^3H-thymidine readouts, wilcoxon matched-pairs sign rank test.
Soluble candidate peptide GAD65 P10Sol (SEQ ID NO 23) was used as a representative peptide and tested for induction of tolerance in a suitable HLA-DR transgenic mouse model (FIG. 1A). […] The FAIM assay involves a fluorescent dye-labelled CD4^+ cell enriched culture with a primary flow cytometric readout assessing CD4 T-cell fluorescent dye dilution and cell-surface activation marker expression with optional paired readouts of ^3H-thymidine incorporation and secreted cytokine measurement. […]

HLA-DR4 transgenic mice = assay: Peptide immunogenicity in HLA-DR transgenic mice (immunisation); assay type: in vivo, mouse; conditions: HLA-DR4 transgenic mice (HLA-DRB1*04:01); data not shown
Method: HLA-DR4 transgenic mice were injected subcutaneously with Complete Freund's Adjuvant (CFA) and 100 μg of GAD65 P10 30-mer. After 10 days, splenocytes were isolated and re-stimulated with GAD65 P10 30-mer for a further 4-5 days before fusion with hypoxanthine-aminopterin-thymidine (HAT) sensitive BW5147 cells using polyethylene glycol (PEG). Fused hybridomas were expanded in HAT selection media before antigen-specific screening. Co-cultures of 1×10^5 hybridomas and 2×10^5 Priess cells (an Epstein-Barr Virus (EBV) transformed DR4 (DRB1*04:01) expressing human cell line (ECACC 86052111)) as antigen presenting cells (APCs) were incubated for 48 h in a 96-well plate with peptide, whole GAD65 protein, or media only. Antigen-specific responses were determined by IL-2 secretion into culture supernatant by ELISA assay (BioLegend 431004). Hybridomas that proliferated in response to both GAD65 protein and GAD65 30-mer were single cell cloned by limiting dilution.
Generation of hybridomas that respond to both the GAD65 protein and the P10 30-mer peptide means that these hybridomas can recognise naturally processed peptide presented by APCs—a property shown to be critical for successful peptide immunotherapy design (Anderton et al 2002).

## DAAWGGGLLMSRKHKWKLSGVERANSVTWN [P10 30-mer]
[1]
  T1D patients responding (FAIM+): 89%
HLA-DR4 transgenic mice
  response to immunisation: responded well

Source: US20260034200A1, “TOLEROGENIC PEPTIDES” (University of Birmingham, priority 2022, published 2026)
